The text below walks through data of patent US8580825B2, “Oxadiazole inhibitors of leukotriene production” (Boehringer Ingelheim International GmbH, priority 2010, dated 2013).

Test [1] has as its target T1, recombinant human FLAP protein (Homo sapiens, UniProt P20292).
T1 construct: made in house; host or cells: Sf9 insect cells (100,000xg membrane fraction used)
T1 sequence (P20292 1-161): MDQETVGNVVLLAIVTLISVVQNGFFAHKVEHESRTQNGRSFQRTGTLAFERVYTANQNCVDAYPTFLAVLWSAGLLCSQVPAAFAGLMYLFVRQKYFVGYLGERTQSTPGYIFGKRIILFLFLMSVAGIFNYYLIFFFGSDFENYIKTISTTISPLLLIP
As to the kind of experiment: FLAP binding assay (Scintillation Proximity Assay, displacement of [125I]L-691,831). As to conditions: read-out: FLAP SPA IC50. The procedure, abridged: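 Scintillation proximity displacement of [125I]L-691,831 (0.08 nM) from membranes of sf9 cells expressing recombinant human FLAP (5 μg/well) on WGA SPA beads, pH 7.5 Tris buffer. Plates shaken 2 h before counting. Non-specific binding defined with 10 μM unlabelled L-691,831.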
(SPA uses beads or plates that emit light when radiolabelled molecules are held near them.)

The subject of test [2] is synthesis of LTB4 in human whole blood. The test can be described thus: human whole blood LTB4 production inhibition assay. As to conditions: calcimycin stimulated, read-out: hWB LTB4 IC50. The test is classed as cell-based. In a few lines: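 LTB4 in plasma was quantified by HTRF immunoassay. Before that, compound-treated heparinized whole blood (15 min, 37 °C) received 20 μM final calcimycin for a further 30 min at 37 °C, followed by centrifugation at 1500×g.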

The term IC50 denotes the point on the concentration scale where inhibition reaches its midpoint.

In the case of `COCCn1cc(-c2nc([C@@](C)(c3ccc(-c4cnc(N)cn4)nc3)C3CC3)no2)cn1` [Example 126, 5-[5-((R)-1-Cyclopropyl-1-{5-[1-(2-methoxy-ethyl)-1H-pyrazol-4-yl]-[1,2,4]oxadiazol-3-yl}-ethyl)-pyridin-2-yl]-pyrazin-2-ylamine], the IC50 in test [1] stood at 8.8 nM; in test [2], 25 nM.

Consider `COCCn1cc(-c2nc([C@](C)(c3ccc(-c4cnc(N)cn4)nc3)C3CC3)no2)cn1` [Example 127, 5-[5-((S)-1-Cyclopropyl-1-{5-[1-(2-methoxy-ethyl)-1H-pyrazol-4-yl]-[1,2,4]oxadiazol-3-yl}-ethyl)-pyridin-2-yl]-pyrazin-2-ylamine], for which the IC50 in test [1] was 220 nM; in test [2] it was 410 nM.

Take `CC(C)[C@](C)(c1ccc(-c2cnc(N)nc2)nc1)c1noc(-c2cnn(CCS(C)(=O)=O)c2)n1` [Example 128, 5-[5-((R)-1-{5-[1-(2-Methanesulfonyl-ethyl)-1H-pyrazol-4-yl]-[1,2,4]oxadiazol-3-yl}-1,2-dimethyl-propyl)-pyridin-2-yl]-pyrimidin-2-ylamine]: the IC50 in test [1] is 10 nM; in test [2] it was 270 nM.

For the compound `CC(C)[C@](C)(c1ccc(-c2cnc(N)nc2)nc1)c1noc(-c2cnn(CC#N)c2)n1` [Example 129, [4-(3-{(R)-1-[6-(2-Amino-pyrimidin-5-yl)-pyridin-3-yl]-1,2-dimethyl-propyl}-[1,2,4]oxadiazol-5-yl)-pyrazol-1-yl]-acetonitrile], the IC50 was 8.1 nM in test [1] and 19 nM in test [2].

For the compound `CNc1cnc(-c2ccc(C(C)(c3noc(-c4cnn(CC(C)(C)O)c4)n3)C3CC3)cn2)cn1` (stereo not shown) [Example 130, 1-[4-(3-{1-Cyclopropyl-1-[6-(5-methylamino-pyrazin-2-yl)-pyridin-3-yl]-ethyl}-[1,2,4]oxadiazol-5-yl)-pyrazol-1-yl]-2-methyl-propan-2-ol], the figures for the IC50 in test [1] and in test [2] were 15 nM and 94 nM, respectively.

In the case of `CC(C)[C@](C)(c1ccc(-c2ccc(N)nc2)nc1)c1noc(-c2cnn(C3COC3)c2)n1` [Example 131, 5-{(R)-1,2-Dimethyl-1-[5-(1-oxetan-3-yl-1H-pyrazol-4-yl)-[1,2,4]oxadiazol-3-yl]-propyl}-[2,3′]bipyridinyl-6′-ylamine], the results for the IC50 in test [1] and in test [2] were 5.6 nM and 39 nM, respectively.

With `CC(C)[C@](C)(c1ccc(-c2ccc(N)nc2)nc1)c1noc(-c2cnn(CC(=O)N(C)C)c2)n1` [Example 132, 2-(4-{3-[(R)-1-(6′-Amino-[2,3′]bipyridinyl-5-yl)-1,2-dimethyl-propyl]-[1,2,4]oxadiazol-5-yl}-pyrazol-1-yl)-N,N-dimethyl-acetamide], the IC50 came to 12 nM in test [1] and 130 nM in test [2].

On to `COCCn1cc(-c2nc([C@@](C)(c3ccc(-c4ccc(N)nc4)nc3)C(C)C)no2)cn1` [Example 133, 5-((R)-1-{5-[1-(2-Methoxy-ethyl)-1H-pyrazol-4-yl]-[1,2,4]oxadiazol-3-yl}-1,2-dimethyl-propyl)-[2,3′]bipyridinyl-6′-ylamine], for which the IC50 in test [1] was 7.5 nM; in test [2], 30 nM.

Regarding `C[C@@](c1ccc(-c2cnc(N)nc2)nc1)(c1noc(-c2cnc(N3CCNCC3)cn2)n1)C1CC1` [Example 134, 5-(5-{(R)-1-Cyclopropyl-1-[5-(3,4,5,6-tetrahydro-2H-[1,2′]bipyrazinyl-5′-yl)-[1,2,4]oxadiazol-3-yl]-ethyl}-pyridin-2-yl)-pyrimidin-2-ylamine], the IC50 turned out to be 7.2 nM in test [1] and 310 nM in test [2].

As to `CC(C)[C@](C)(c1ccc(-c2ccc(N)nc2)nc1)c1noc(-c2cnn(CC(C)(C)O)c2)n1` [Example 136, 1-(4-{3-[(R)-1-(6′-Amino-[2,3′]bipyridinyl-5-yl)-1,2-dimethyl-propyl]-[1,2,4]oxadiazol-5-yl}-pyrazol-1-yl)-2-methyl-propan-2-ol], the IC50 turned out to be 9.9 nM in test [1] and 61 nM in test [2].

As to `CC(C)[C@](C)(c1ccc(-c2ccc(N)nc2)nc1)c1noc(-c2cnc(N3CCNCC3)cn2)n1` [Example 137, 5-{(R)-1,2-Dimethyl-1-[5-(3,4,5,6-tetrahydro-2H-[1,2′]bipyrazinyl-5′-yl)-[1,2,4]oxadiazol-3-yl]-propyl}-[2,3′]bipyridinyl-6′-ylamine], the IC50 in test [1] was determined as 11 nM; in test [2], 590 nM.

Take `COCCn1cc(-c2nc([C@@](C)(c3ccc(-c4ccc(N)nc4)nc3)C3CC3)no2)cn1` [Example 138, 5-((R)-1-Cyclopropyl-1-{5-[1-(2-methoxy-ethyl)-1H-pyrazol-4-yl]-[1,2,4]oxadiazol-3-yl}-ethyl)-[2,3′]bipyridinyl-6′-ylamine]: the IC50 in test [1] is 22 nM; in test [2] it was 100 nM.

Regarding `CC(C)(O)Cn1cc(-c2nc([C@@](C)(c3ccc(-c4ccc(N)nc4)nc3)C3CC3)no2)cn1` [Example 139, 1-(4-{3-[(R)-1-(6′-Amino-[2,3′]bipyridinyl-5-yl)-1-cyclopropyl-ethyl]-[1,2,4]oxadiazol-5-yl}-pyrazol-1-yl)-2-methyl-propan-2-ol], the IC50 in test [1] was found to be 33 nM; in test [2], 68 nM.

Consider `CN(C)C(=O)Cn1cc(-c2nc([C@@](C)(c3ccc(-c4ccc(N)nc4)nc3)C3CC3)no2)cn1` [Example 140, 2-(4-{3-[(R)-1-(6′-Amino-[2,3′]bipyridinyl-5-yl)-1-cyclopropyl-ethyl]-[1,2,4]oxadiazol-5-yl}-pyrazol-1-yl)-N,N-dimethyl-acetamide], for which the IC50 turned out to be 44 nM in test [1] and 150 nM in test [2].

For `CC(C)[C@](C)(c1ccc(-c2cnc(N)nc2)nc1)c1noc(-c2cnn(CC(=O)NC(C)(C)C)c2)n1` [Example 141, 2-[4-(3-{(R)-1-[6-(2-Amino-pyrimidin-5-yl)-pyridin-3-yl]-1,2-dimethyl-propyl}-1,2,4-oxadiazol-5-yl)-pyrazol-1-yl]-N-tert-butyl-acetamide], the results for the half-inhibitory concentration (IC50) in test [1] and in test [2] were 8.3 nM and 68 nM, respectively.

Turning to `CC(C)NC(=O)Cn1cc(-c2nc([C@@](C)(c3ccc(-c4cnc(N)nc4)nc3)C(C)C)no2)cn1` [Example 142, 2-[4-(3-{(R)-1-[6-(2-Amino-pyrimidin-5-yl)-pyridin-3-yl]-1,2-dimethyl-propyl}-1,2,4-oxadiazol-5-yl)-pyrazol-1-yl]-N-isopropyl-acetamide], the IC50 in test [1] was 16 nM; in test [2], 85 nM.

On to `CC(C)[C@](C)(c1ccc(-c2cnc(N)nc2)nc1)c1noc(-c2cnn(CC(=O)N(C)C(C)(C)C)c2)n1` [Example 143, 2-[4-(3-{(R)-1-[6-(2-Amino-pyrimidin-5-yl)-pyridin-3-yl]-1,2-dimethyl-propyl}-1,2,4-oxadiazol-5-yl)-pyrazol-1-yl]-N-tert-butyl-N-methyl-acetamide], for which the concentration for half-maximal inhibition (IC50) in test [1] was determined as 9.2 nM; in test [2] it was 51 nM.

For the compound `CC(C)[C@](C)(c1ccc(-c2cnc(N)nc2)nc1)c1noc(-c2cnn(CC(=O)N(C)C3CC3)c2)n1` [Example 144, 2-[4-(3-{(R)-1-[6-(2-Amino-pyrimidin-5-yl)-pyridin-3-yl]-1,2-dimethyl-propyl}-1,2,4-oxadiazol-5-yl)-pyrazol-1-yl]-N-cyclopropyl-N-methyl-acetamide], the values for the concentration for half-maximal inhibition (IC50) in test [1] and in test [2] were 13 nM and 68 nM, respectively.

As for `CC(C)CNC(=O)Cn1cc(-c2nc([C@@](C)(c3ccc(-c4cnc(N)nc4)nc3)C(C)C)no2)cn1` [Example 145, 2-[4-(3-{(R)-1-[6-(2-Amino-pyrimidin-5-yl)-pyridin-3-yl]-1,2-dimethyl-propyl}-1,2,4-oxadiazol-5-yl)-pyrazol-1-yl]-N-isobutyl-acetamide], the IC50 in test [1] came out at 14 nM; in test [2], 110 nM.

In the case of `CC(C)[C@](C)(c1ccc(-c2cnc(N)nc2)nc1)c1noc(-c2cnn(CC(=O)N(C)CC3CCCO3)c2)n1` (stereo partly drawn) [Example 146, 2-[4-(3-{(R)-1-[6-(2-Amino-pyrimidin-5-yl)-pyridin-3-yl]-1,2-dimethyl-propyl}-1,2,4-oxadiazol-5-yl)-pyrazol-1-yl]-N-methyl-N-(tetrahydro-furan-2-ylmethyl)-acetamide], the IC50 is 9.4 nM in test [1] and 53 nM in test [2].

Regarding `CC(C)[C@](C)(c1ccc(-c2cnc(N)nc2)nc1)c1noc(-c2cnn(CC(=O)NC3CC3)c2)n1` [Example 147, 2-[4-(3-{(R)-1-[6-(2-Amino-pyrimidin-5-yl)-pyridin-3-yl]-1,2-dimethyl-propyl}-1,2,4-oxadiazol-5-yl)-pyrazol-1-yl]-N-cyclopropyl-acetamide], the figures for the IC50 in test [1] and in test [2] were 8.6 nM and 170 nM, respectively.

As to `CC(C)[C@](C)(c1ccc(-c2cnc(N)nc2)nc1)c1noc(-c2cnn(CC(=O)NCC3CCCO3)c2)n1` (stereo partly drawn) [Example 148, 2-[4-(3-{(R)-1-[6-(2-Amino-pyrimidin-5-yl)-pyridin-3-yl]-1,2-dimethyl-propyl}-1,2,4-oxadiazol-5-yl)-pyrazol-1-yl]-N-(tetrahydro-furan-2-ylmethyl)-acetamide], the IC50 in test [1] worked out at 22 nM; in test [2], 290 nM.

As to `CCNC(=O)Cn1cc(-c2nc([C@@](C)(c3ccc(-c4cnc(N)nc4)nc3)C(C)C)no2)cn1` [Example 149, 2-[4-(3-{(R)-1-[6-(2-Amino-pyrimidin-5-yl)-pyridin-3-yl]-1,2-dimethyl-propyl}-1,2,4-oxadiazol-5-yl)-pyrazol-1-yl]-N-ethyl-acetamide], the IC50 is 15 nM in test [1] and 140 nM in test [2].
